The values below come from article PMC7667029, “A Targeted Computational Screen of the SWEETLEAD Database Reveals FDA-Approved Compounds with Anti-Dengue Viral Activity” (mBio, 2020).

The test system of one data set is DENV2. Nature of the data set: DENV2-infected AGB6 mouse model (splenic titer, survival). The class given is in vivo, AGB6 mice. Conditions: AGB6 mice, 15 mg/kg vandetanib twice daily, 15 mg/kg; for Splenic viral titer: 4 days postinfection; for Survival of infected mice: oral.
Another data set relates to BHK-21 and Huh7 cells. The data set can be described thus: Cell viability by WST assay in uninfected cells (Table S1). The note with it: cell viability relative to vehicle at these doses. It is filed as cell-based. As for the experimental part:
Supplementary file : TABLE S1 Summary of hits for lead compounds ARDP0006 and ST-148 screened for anti-dengue activity in tissue culture cells. Hit compounds were tested for anti-dengue activity and cell toxicity in tissue culture cell lines. Antiviral activity is summarized as follows: −, not antiviral, with titer greater than 50% of vehicle; +, weakly antiviral, with titer between 20 and 50% of vehicle; ++, moderately antiviral, with titer between 5 and 20% of vehicle; +++, highly antiviral, with titer less than 5% of vehicle. Toxicity at these doses is represented as follows: −, nontoxic, with cell viability greater than 80% of vehicle; +, mild toxicity, with cell viability between 60 and 80% of vehicle; +++, high toxicity, with cell viability less than 60% of vehicle. Data summarized here are depicted graphically in Fig. S1 and Fig. 2C, 3C, and [4]C. […]
Supplementary file : FIG S1 Initial screening of eliminated hit compounds for anti-dengue activity in tissue culture cells. […] Cell viability in uninfected cells in the presence of compounds for 48 h was measured by WST assay (gray). […]
Mock-infected wells were used to determine cell viability in the presence of chemical compounds compared to 1% DMSO vehicle control. Cell viability was determined using the WST-1 kit (Abcam) per the manufacturer’s instructions. […]

Data set [1] relates to dengue virus. The data set can be described thus: Extracellular and intracellular virus quantification in Huh7 cells. Conditions: IC90 dose (spautin-1 2.4 μM, vandetanib 3.6 μM), Huh7, 24 hpi. The class given is cell-based. Here is the method:
FIG 5 Vandetanib and spautin-1 inhibit dengue maturation and egress in a VPS34-independent manner. […] Cells were pretreated for 1 h, infected for 1 h at an MOI of 0.5 PFU/cell, and posttreated for an additional 23 h. N = 4, one-way ANOVA with Dunnett’s multiple-comparison test. ns, not significant (P > 0.05); **, P < 0.01; ****, P < 0.0001. (C) Huh7 cells transfected with a luciferase-expressing RNA replicon were treated with 3 μM vandetanib (orange) or 1% DMSO vehicle control (black) for 1 h prior to transfection and up to 52 h posttransfection. Luciferase intensity was quantified as a measure of viral protein abundance. Luciferase intensity was shown as relative light units (RLU). The use of an RNA replicon that is directly transfected into cells reflects only translation and RNA replication steps of viral infection, not viral packaging or cell exit. N = 4, two-way ANOVA with Sikak’s multiple-comparison test. […] (D) VPS34 was not required for spautin-1 or vandetanib anti-dengue activity. Wild-type and VPS34 knockout Huh7 cells were treated with 5 μM spautin-1, 5 μM vandetanib, or DMSO. Cells were pretreated, infected at an MOI of 0.5, and posttreated as described above for panels A and B. At 24 hpi, cellular supernatant was collected and titered by plaque assay. N ≥ 3. One-way ANOVA with Dunnett’s multiple-comparison test; *, P < 0.05; **, P < 0.01; ***, P < 0.001; ****, P < 0.0001.
After 1 h, virus inoculum was aspirated and replaced with medium containing compounds or 1% DMSO. After 24-h total infection, extracellular virus was collected in cellular supernatant and quantified by plaque assay. To collect intracellular virus, cells were washed with PBS, incubated for 3 min at 4°C with high-salt buffer (1 M NaCl, 50 mM sodium bicarbonate [pH 9.5]) to detach cell-associated extracellular virus ([63]), washed twice with PBS, detached with 0.25% trypsin-EDTA, and isolated by centrifugation (500 × g, 5 min, 4°C). Infected cell pellets were resuspended in 750 μl cell culture medium, lysed by repeated freeze/thaw in liquid nitrogen followed by 37°C water bath. Debris was removed by centrifugation (3,200 × g, 5 min, 4°C), and infectious intracellular virus was quantified by BHK-21 plaque assay.

Data set [2] has as its system dengue virus. Nature of the data set: Antiviral activity in VPS34 knockout Huh7 cells. The class given is cell-based. The note with it: 5 μM compound, MOI 0.5, 24 hpi. Here is the method:
FIG 5 Vandetanib and spautin-1 inhibit dengue maturation and egress in a VPS34-independent manner. […] Cells were pretreated for 1 h, infected for 1 h at an MOI of 0.5 PFU/cell, and posttreated for an additional 23 h. N = 4, one-way ANOVA with Dunnett’s multiple-comparison test. ns, not significant (P > 0.05); **, P < 0.01; ****, P < 0.0001. (C) Huh7 cells transfected with a luciferase-expressing RNA replicon were treated with 3 μM vandetanib (orange) or 1% DMSO vehicle control (black) for 1 h prior to transfection and up to 52 h posttransfection. Luciferase intensity was quantified as a measure of viral protein abundance. Luciferase intensity was shown as relative light units (RLU). The use of an RNA replicon that is directly transfected into cells reflects only translation and RNA replication steps of viral infection, not viral packaging or cell exit. N = 4, two-way ANOVA with Sikak’s multiple-comparison test. […] (D) VPS34 was not required for spautin-1 or vandetanib anti-dengue activity. Wild-type and VPS34 knockout Huh7 cells were treated with 5 μM spautin-1, 5 μM vandetanib, or DMSO. Cells were pretreated, infected at an MOI of 0.5, and posttreated as described above for panels A and B. At 24 hpi, cellular supernatant was collected and titered by plaque assay. N ≥ 3. One-way ANOVA with Dunnett’s multiple-comparison test; *, P < 0.05; **, P < 0.01; ***, P < 0.001; ****, P < 0.0001. […]

The conditions of data set [3]: ref PubChem database, cited from earlier work.
Data set [4] has as its system dengue virus. Nature of the data set: Initial screening of hit compounds for anti-dengue activity in tissue culture cells (Table S1). The note with it: viral titer relative to vehicle, tissue culture cell lines (BHK-21 48 hpi, Fig. S1; Huh7, Fig. 2C, 3C, 4C). The class given is cell-based.

SMILES strings stand for the structures. Entries after “also recorded” stand apart in the source; their conditions may differ. Some results are limits rather than exact numbers.

As a reminder, the LD50 is the dose at which mortality reaches 50%.

Turning to `COc1cc2c(Nc3ccc(Br)cc3F)ncnc2cc1OCC1CCN(C)CC1` [Vandetanib, vandetanib], in the data set with DENV2, the Splenic viral titer entry was “did not affect splenic titers” and the “Survival of infected mice” value was “extend survival”. Moreover, in the data set with DENV2 (listed as vandetanib), the Splenic viral titer result is “did not significantly impact splenic viral titer” and the “Survival of infected mice” value is “significantly extended survival”. For the same compound, the Toxicity entry in the data set on BHK-21 and Huh7 cells is on record as “− (nontoxic, with cell viability greater than 80% of vehicle)”. In addition, in the data set on dengue virus [1], the Extracellular viral titer entry is given as “significantly reduced; also recorded: reduced extracellular virus” and the Infectious intracellular virus entry is reported as “unchanged; also recorded: abundant intracellular virus”. Besides, in the data set on dengue virus [2], the “Antiviral activity in VPS34 knockout cells” value is “retained significant antiviral activity; also recorded: retained their ability to limit dengue virus egress”. The LD50 in data set [3] (Oral, single dose) is above 1000 mg/kg. Besides, the “Acute toxicity in words (Table S2)” value in data set [3] (healthy mice) is reported as “only mildly toxic”. In addition, the Antiviral entry in the data set on dengue virus [4] was “++ (moderately antiviral, with titer between 5 and 20% of vehicle)”.
